US20220238900A1, “All Natural Redox Flow Battery Utilizing Indigo Carmine And Derivatives Thereof” (Northeastern University, priority 2019, published 2022)
Values after ≈ are worked out from the molar mass of the structure shown. Values joined by “and” are separate entries in the source; they are usually repeats but may differ in a detail not shown here. Equal entries are not always repeated.

Columns and labels:
[1] = Three-electrode half-cell cyclic voltammetry
Description: Cyclic voltammetry experiments were performed using a Biologic SP150 potentiostat controlled by Biologic EC-Lab software.

[2] = physchem
Text: FIG. 1A illustrates the natural source of the indigo dye. The most natural product from which indigo is obtained includes indican (genus indigofera plants) and isatan (woad plants or isatis tinctoria) in tropical and moderate climate zones, respectively.^[19] Irrespective of their source, the chemistry of the dye extraction involves soaking the leaves of the plants in water to facilitate the fermentation process, during which the indican readily undergoes enzymatic hydrolysis and releases indoxyl that converts to indigo by oxidation upon exposure to air. […] On the contrary, a high concentration of reactants in solution is the key to minimize the storage tank size while obtaining high specific volumetric energy density. Therefore, the design of an appropriate electrolyte for AORFB starts from identifying redox-active materials followed by optimization of the structure to achieve the maximum solubility to maximize the energy density. […] In IC-H, the substituted protons are attached to the strongly electronegative oxygen atoms and capable of forming strong hydrogen bondings. Hydrogen bondings are usually stronger than the Van Der Wall forces and dipole interactions.

[3] = Rotating disk electrode linear sweep voltammetry (Levich and Tafel analysis); assay type: physicochemical
Text: Further, the log (i0) can also be represented as FACOk0, where k0 is the electron transfer rate constant.

## CC1(C)CCCC(C)(C)N1[O] [TEMPO, 2,2,6,6-tetramethylpiperidine-1-oxyl, reference compound]
[1]; acidic medium (0.1 M HClO4 where stated)
  redox potential (redox peaks): around 0.75 V vs. Ag/AgCl

## O=C1/C(=C2\Nc3ccc(S(=O)(=O)O)cc3C2=O)Nc2ccc(S(=O)(=O)O)cc21 [IC-H, 5,5′-indigodisulfonic acid]
[2]
  aqueous solubility: 760 mM (≈ 321 mg/mL)
  improvement in solubility: 22 folds
[3]; 1 mM in 0.1 M HClO4, fitted Tafel plot
  electron transfer (reaction) rate constant: 0.000282 cm/s
[3]; 1 mM in 0.1 M HClO4, slope of Levich plot
  diffusion coefficient: 2.232×10^−5 cm^2 s^−1 and 2.23×10^−5 cm^2 s^−1
[3]; LSV data at 2700 rpm, Tafel plot
  electron transfer rate constant k0: 0.000282 cm/s
[1]; 10,000 cycles at 40 mV s^−1
  chemical stability on CV cycling: negligible decay
[1]; scan rates 5 mV s^−1 to 200 mV s^−1
  redox peak separation: 40 mV
